Laboratory results from patent US20160346255A1, “METHODS, AGENTS AND COMPOSITIONS FOR TREATMENT OF INFLAMMATORY CONDITIONS” (Betanien Hospital, priority 2014, published 2016).

Tests used:
Assay type in all cases: in vivo, human
[1] = test system: post-menopausal female with rheumatoid arthritis; assay: Post-menopausal RA patients on methotrexate, oral ASP1707 30 mg twice daily for 12 weeks; settings: ASP1707+MTX; Week 12; assuming placebo+MTX 30%
Procedure: • Patient is offered experimental GnRH antagonist therapy, ASP1707 30 mg twice daily for 12 weeks orally. Primary Assessment is ACR20 response rate at 12 weeks.

[2] = test system: Patient with Psoriatic Arthritis; assay: Psoriatic arthritis patient treated with oral ASP1707; settings: 3 mg daily for 12 weeks; response at 4 months
Procedure: • person with psoriatic arthritis • Fulfills CASPAR 2006 classification criteria for psoriatic arthritis.
• Is offered experimental GnRH antagonist therapy, ASP1707 3 mg daily for 12 weeks.

[3] = test system: patient with cancer-related inflammation; assay: Cancer-related inflammation, colon cancer patient treated with oral ASP1707; settings: 8 mg daily, at 3 months
Description: • person with colon cancer with disease duration of 1 year. Suffers from signs and symptoms of cancer-related inflammation, such as pain, anorexia, and fatigue.

How did the ACR20 response rate [1] turn out when C[C@@H](O)C(=N)NS(=O)(=O)c1cc(C(=O)C(C(=O)c2cc(F)ccc2F)=C2Nc3ccccc3N2)ccc1F [ASP1707, (2R)—N-({5-[3-(2,5-difluorophenyl)-2-(1,3-dihydro-2H-benzoimidazol-2-ylidene)-3-oxopropanoyl]-2-fluorophenyl}sulfonyl)-2-hydroxypropanimidamide] was run?
Its ACR20 response rate is 60%.

And the DAS reduction [2]?
The DAS reduction was “over 0.6 units”.

And the “Signs and symptoms of cancer related inflammation (pain, anorexia, fatigue)” value [3]?
The value was “reduced”.

What about the CRP ([3]; baseline 40 mg/L) of the same compound?
Its CRP is 12 mg/L.
